In one experiment the test system is murine motoneurons. Put plainly: In vitro neurite outgrowth of motoneurons. The settings on record: tegaserod, cisapride, GR113808 100 nM; colominic acid 3 µM; PSA mimicking peptide 30 µM; Figure 2B. It is filed as cell-based, C57BL/6J mice. On the procedure: (§1) Primary cultures of cerebellar neurons or Schwann cells were prepared from cerebellum or dorsal root ganglia of 7-day-old C57BL/6J mice as described in Mehanna et al. (2009), Brain, 132 (Pt 6): 1449-62 and Loers et al. (2005), J. Neurochem., 92(6): 1463-76. Motoneurons were prepared from E14 C57BL/6J mice as described in Simova et al. (2006), Ann. Neurol., 60(4): 430-437. In brief, 48-well plates were coated with 0.01% poly-L-lysine (PLL) or poly-L-ornithine (PLO) overnight at 4°C, washed twice with water and air-dried. Directly before use, plates were washed twice with PBS, and Schwann cells, cerebellar neurons (PLL) or motoneurons (PLO) were seeded at a density of 1.25 x 10^4 (Schwann cells and motoneurons) or 2.5 x 10^4 cells (cerebellar neurons) per well in 250 µl of corresponding serum-free culture medium. Soluble organic compounds were added to the culture 1 h after seeding in increasing concentrations. After maintenance for 24 h at 37°C, cells were fixed with 2.5% glutaraldehyde and stained with 1% methylene blue/toluidine blue in 1% borax. Morphological quantification of neurite or process lengths was performed as described in Mehanna et al. (2009), see above. Schwann cell processes and neurites of cerebellar neurons with a length of at least one cell body diameter were counted and total neurite or process length per cell was determined by counting 50 cells in each of two wells per experiment. At least three independent experiments were performed for each culture. Also, the activity of tegaserod with the PSA peptide mimic and the bacterial PSA analogue, colominic acid, on neurite and process extension experiments was compared.

The subject of experiment [1] is cerebellar granule neurons (cGNs). Put plainly: In vitro neurite outgrowth of cerebellar granule neurons. It is filed as cell-based, C57BL/6J mice. The settings on record: compared to control; Figure 2C, D. On the procedure:
as §1

Experiment [2] deals with murine cerebellar granule neurons (cGNs), Schwann cells, and motoneurons. Description: In vitro neurite/process outgrowth, statements covering all cell types. It is filed as cell-based, C57BL/6J mice. As to the method:
as §1

Experiment [3] has as its system motoneurons isolated from NCAM^-/- mice. Put plainly: In vitro neurite outgrowth of NCAM-deficient motoneurons. It is filed as cell-based. The following applies: tegaserod 100 nM; colominic acid 3 µM; PSA mimicking peptide 30 µM; Figure 2B. As to the method: as §1, with “After maintenance for 24 h at 37°C, cells were fixed with 2.5% glutaraldehyde and stained with 1% methylene blue/toluidine blue in 1% borax.” left out, “At least three independent experiments were performed for each culture. Also, the activity of tegaserod with the PSA peptide mimic and the bacterial PSA analogue, colominic acid, on neurite and process extension experiments was compared.” left out

On to `COc1cc(N)c(Cl)cc1C(=O)NC1CCN(CCCOc2ccc(F)cc2)CC1OC` (stereo not drawn) [cisapride], for which the “effect on neurite extension of murine motoneurons (in words)” value (“effect … of murine motoneurons (in words)” for short) in the experiment on murine motoneurons is “no ability to enhance motoneuron neurite extension”. The “effect on neurite outgrowth of cGNs (in words)” value in experiment [1] was “not observed”.

As for `Cn1cc(C(=O)OCC2CCN(CCNS(C)(=O)=O)CC2)c2ccccc21` [GR 113808], in the experiment on murine motoneurons, the “effect … of murine motoneurons (in words)” value is “no ability to enhance motoneuron neurite extension”.

Turning to NTHTDPYIYPIDC [PSA mimicking peptide], the “concentration of maximal stimulatory effects” value in experiment [2] (neurite and process extension of neurons and Schwann cells) worked out at 30 µM. Further, the “effect of overdosing / higher concentrations (in words)” value in experiment [2] (neurons and Schwann cells) is “did not lead to any negative side effects”. Besides, in experiment [3], the “effect on neurite extension of NCAM^-/- motoneurons (in words)” value was “no enhancement in neurite extension”. Also, in the experiment with murine motoneurons, the “effect … of murine motoneurons (in words)” value is on record as “significant stimulatory effect”.

Consider `NCCc1c[nH]c2ccc(O)cc12` [serotonin], for which the “effect … of murine motoneurons (in words)” value with murine motoneurons is recorded as “no ability to enhance motoneuron neurite extension”. The “effect on neurite outgrowth of cGNs (in words)” value in experiment [1] is “not observed”.

Values taken from patent EP2724723A1, “Tegaserod for use in the treatment of nerve injuries” (Universitätsklinikum Hamburg-Eppendorf, priority 2012, dated 2014).
